{"source": "ChEMBL document CHEMBL1146265", "about": "“Synthesis and structure-activity studies of antofine analogues as potential anticancer agents” (Bioorg Med Chem Lett, 2007)", "type_in_all_cases": "functional, cell-based", "key": {"HCT-116": {"tested_on": "HCT-116", "experiment": "Cytotoxicity against human HCT116 cells by SRB assay"}, "HT-1080": {"tested_on": "HT-1080", "experiment": "Cytotoxicity against human HT1080 cells by SRB assay"}, "A549": {"tested_on": "A549", "experiment": "Cytotoxicity against human A549 cells by SRB assay"}}, "data": [{"smiles": "COc1ccc2c3c(c4cc(OC)c(OC)cc4c2c1)C[C@H]1CCCN1C3", "note": "[(-)-ANTOFINE]", "values": [{"measurement": "IC50", "setting": "HCT-116", "value": 0.0099, "unit": "µM"}, {"measurement": "IC50", "setting": "HT-1080", "value": 0.0096, "unit": "µM"}, {"measurement": "IC50", "setting": "A549", "value": 0.0104, "unit": "µM"}]}, {"smiles": "COc1ccc2c3c(c4cc5c(cc4c2c1)OCO5)CC1CCCN1C3", "note": "(stereo not given)", "values": [{"measurement": "IC50", "setting": "HCT-116", "value": 0.364, "unit": "µM"}, {"measurement": "IC50", "setting": "HT-1080", "value": 0.453, "unit": "µM"}, {"measurement": "IC50", "setting": "A549", "value": 0.747, "unit": "µM"}]}, {"smiles": "COc1ccc2c3c(c4cc(OC)c(OC)cc4c2c1)CC1CCCN1C3", "note": "(stereo not drawn) [(+/-)-ANTOFINE]", "values": [{"measurement": "IC50", "setting": "HCT-116", "value": 0.0294, "unit": "µM"}, {"measurement": "IC50", "setting": "HT-1080", "value": 0.0275, "unit": "µM"}, {"measurement": "IC50", "setting": "A549", "value": 0.0251, "unit": "µM"}]}, {"smiles": "COc1cc2c3c(c4ccc(O)cc4c2cc1OC)CN1CCCC1C3", "note": "(stereo not given)", "values": [{"measurement": "IC50", "setting": "HCT-116", "value": 0.0011, "unit": "µM"}, {"measurement": "IC50", "setting": "HT-1080", "value": 0.0011, "unit": "µM"}, {"measurement": "IC50", "setting": "A549", "value": 0.0014, "unit": "µM"}]}, {"smiles": "COc1ccc2c3c(c4cc(OC(C)C)c(OC)cc4c2c1)CC1CCCN1C3", "note": "(stereo not given)", "values": [{"measurement": "IC50", "setting": "HCT-116", "value": 0.783, "unit": "µM"}, {"measurement": "IC50", "setting": "HT-1080", "value": "> 1", "unit": "µM"}, {"measurement": "IC50", "setting": "A549", "value": "> 1", "unit": "µM"}]}, {"smiles": "COc1cc2c3c(c4ccc(OC(C)C)cc4c2cc1OC)CN1CCCC1C3", "note": "(stereo not given)", "values": [{"measurement": "IC50", "setting": "HCT-116", "value": 0.0192, "unit": "µM"}, {"measurement": "IC50", "setting": "HT-1080", "value": 0.0236, "unit": "µM"}, {"measurement": "IC50", "setting": "A549", "value": 0.0405, "unit": "µM"}]}, {"smiles": "COc1ccc2c3c(c4cc(O)c(OC)cc4c2c1)CC1CCCN1C3", "note": "(stereo not given)", "values": [{"measurement": "IC50", "setting": "HCT-116", "value": 0.0683, "unit": "µM"}, {"measurement": "IC50", "setting": "HT-1080", "value": 0.0726, "unit": "µM"}, {"measurement": "IC50", "setting": "A549", "value": "> 0.1", "unit": "µM"}]}, {"smiles": "COc1cc2c3c(c4ccccc4c2cc1OC)CN1CCCC1C3", "note": "(stereo not given)", "values": [{"measurement": "IC50", "setting": "HCT-116", "value": 0.0493, "unit": "µM"}, {"measurement": "IC50", "setting": "HT-1080", "value": 0.0591, "unit": "µM"}, {"measurement": "IC50", "setting": "A549", "value": "> 0.1", "unit": "µM"}]}, {"smiles": "COc1ccc2c3c(c4cc(OC)c(OC(C)C)cc4c2c1)CC1CCCN1C3", "note": "(stereo not given)", "values": [{"measurement": "IC50", "setting": "HCT-116", "value": 0.0247, "unit": "µM"}, {"measurement": "IC50", "setting": "HT-1080", "value": 0.0374, "unit": "µM"}, {"measurement": "IC50", "setting": "A549", "value": 0.0539, "unit": "µM"}]}, {"smiles": "COc1ccc2c3c(c4cc(OC)c(O)cc4c2c1)CC1CCCN1C3", "note": "(stereo not given)", "values": [{"measurement": "IC50", "setting": "HCT-116", "value": 0.0214, "unit": "µM"}, {"measurement": "IC50", "setting": "HT-1080", "value": 0.0198, "unit": "µM"}, {"measurement": "IC50", "setting": "A549", "value": 0.0498, "unit": "µM"}]}]}
